Experimental data as given in patent publication US20030013660A1, “Dioxolane analogs for improved inter-cellular delivery” (Shire BioChem Inc., priority 2000, published 2003).

Key:
hCNT1 = target: T1, hCNT1 (Homo sapiens, UniProt O00337); experiment: Uptake by recombinant transporter in transiently transfected HeLa cells; type: in vitro ADME; conditions: 10 μM, 100 μM dilazep
T1 construct: expressed in transfected cells; host or cells: HeLa cells, transient transfection with pcDNA3-hCNT1
T1 sequence (O00337 1-649): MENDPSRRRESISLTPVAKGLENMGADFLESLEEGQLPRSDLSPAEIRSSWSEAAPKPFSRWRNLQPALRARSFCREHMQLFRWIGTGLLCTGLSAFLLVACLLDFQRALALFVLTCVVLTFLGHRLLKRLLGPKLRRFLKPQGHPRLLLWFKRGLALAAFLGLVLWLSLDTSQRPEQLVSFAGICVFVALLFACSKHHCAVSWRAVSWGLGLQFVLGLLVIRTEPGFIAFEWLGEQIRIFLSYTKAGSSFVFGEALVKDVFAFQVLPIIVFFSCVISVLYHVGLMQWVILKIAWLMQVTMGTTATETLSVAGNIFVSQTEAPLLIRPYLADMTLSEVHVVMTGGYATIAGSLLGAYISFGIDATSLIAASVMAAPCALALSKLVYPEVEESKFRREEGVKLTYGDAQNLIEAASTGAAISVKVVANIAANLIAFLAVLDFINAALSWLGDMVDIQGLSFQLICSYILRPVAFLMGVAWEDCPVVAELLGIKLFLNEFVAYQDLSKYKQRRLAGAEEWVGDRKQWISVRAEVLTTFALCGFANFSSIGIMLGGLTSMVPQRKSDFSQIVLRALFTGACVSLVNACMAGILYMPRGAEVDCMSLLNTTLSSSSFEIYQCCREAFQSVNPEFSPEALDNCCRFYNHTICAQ
Experimental: (§1) Transport assays were conducted in the presence of the equilibrative transport inhibitor, 100 μM dilazep and either in the presence ( ? ) or absence (▴) of […].sodium, and compared to HeLa cells transiently transfected with the empty vector control plasmic (▾).
(§2) Cancer Res., 56: 4187-4191.
(§3) Expression plasmids encoding recombinant hCNT1 and hCNT2 are prepared using conventional methods. […] The expression vectors are separately introduced into actively proliferating HeLa cells, following conventional methods. See, e.g., Fang et al (1996).
(§4) Recombinant hCNT1 and hCNT2 were separately introduced into HeLa cells by transient transfection of pcDNA3 plasmids containing the coding sequences of the relevant nucleoside transporter protein. […] Uptake of 10 μM [^3H]troxacitabine was not mediated either by hCNT1 or by hCNT2. Troxacitabine uptake by cib-activity (hCNT3) in differentiated HL-60 cells: […]

hCNT2 = target: T2, hCNT2 (Homo sapiens, UniProt O43868); experiment: as above; type: in vitro ADME; conditions: 10 μM, 100 μM dilazep
T2 construct: expressed in transfected cells; host or cells: HeLa cells, transient transfection with pcDNA3-hCNT2
T2 sequence (O43868 1-658): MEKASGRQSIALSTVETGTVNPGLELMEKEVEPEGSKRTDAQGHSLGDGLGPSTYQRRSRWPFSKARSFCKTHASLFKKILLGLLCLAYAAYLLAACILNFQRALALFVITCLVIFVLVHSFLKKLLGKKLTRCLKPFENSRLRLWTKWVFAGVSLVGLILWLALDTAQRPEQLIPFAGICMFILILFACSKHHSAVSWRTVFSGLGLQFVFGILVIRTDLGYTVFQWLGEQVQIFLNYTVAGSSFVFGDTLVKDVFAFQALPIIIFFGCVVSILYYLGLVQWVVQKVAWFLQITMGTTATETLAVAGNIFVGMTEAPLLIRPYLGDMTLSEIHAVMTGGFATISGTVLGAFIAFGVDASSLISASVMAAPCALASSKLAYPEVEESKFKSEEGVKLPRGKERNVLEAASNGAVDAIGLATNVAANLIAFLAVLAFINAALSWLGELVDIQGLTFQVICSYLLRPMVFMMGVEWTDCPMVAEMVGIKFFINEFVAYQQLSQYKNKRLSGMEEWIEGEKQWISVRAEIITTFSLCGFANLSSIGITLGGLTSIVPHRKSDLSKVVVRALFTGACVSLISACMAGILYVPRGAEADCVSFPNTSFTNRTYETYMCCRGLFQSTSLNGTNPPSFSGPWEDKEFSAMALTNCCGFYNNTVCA
Experimental: as §1, §2, §3, §4

CEM/ARAC8C cells = experiment: Cellular uptake assay of [3H]nucleoside in nucleoside-transport deficient CEM/ARAC8C cells; type: in vitro ADME
Experimental: FIG. 1 Comparative uptake of 30 μM [^3H]-troxacitabine in CEM (Panel A) and CEM/ARAC8C (Panel B) cells. [^3H]-Uridine uptake in either the presence or absence of the hENT1 inhibitor, NBMPR or 5 mM non-radioactive uridine was included for comparison as a control substrate.

CEM/dCK cells = experiment: CellTiter 96 cell proliferation assay (chemosensitivity), 48 h; type: cell-based; conditions: read-out: EC50 (50% of the dose response curve), 48 h exposure
Experimental: The chemosensitivity of suspension cells lines (e.g., CEM or CEM-derivatives) is assessed using the CellTiter 96 ? proliferation assay. […] Adherent cell lines (e.g., DU145 or DU145^R) are seeded (^˜10^5 cells) in triplicate dishes, 24 h before drug exposure. Growth inhibition is determined by trypsinization and counting cells electronically.

hENT1 = target: T3, hENT1 (Homo sapiens, UniProt Q99808); experiment: Cellular uptake assay of [3H]nucleoside in DU145 cells, with or without NBMPR or excess non-radioactive troxacitabine; type: in vitro ADME; set-up: The presence of functional es-mediated transport (hENT1) in DU145 cells; endogenous in cells; host or cells: DU145 cells
T3 sequence (Q99808 1-456): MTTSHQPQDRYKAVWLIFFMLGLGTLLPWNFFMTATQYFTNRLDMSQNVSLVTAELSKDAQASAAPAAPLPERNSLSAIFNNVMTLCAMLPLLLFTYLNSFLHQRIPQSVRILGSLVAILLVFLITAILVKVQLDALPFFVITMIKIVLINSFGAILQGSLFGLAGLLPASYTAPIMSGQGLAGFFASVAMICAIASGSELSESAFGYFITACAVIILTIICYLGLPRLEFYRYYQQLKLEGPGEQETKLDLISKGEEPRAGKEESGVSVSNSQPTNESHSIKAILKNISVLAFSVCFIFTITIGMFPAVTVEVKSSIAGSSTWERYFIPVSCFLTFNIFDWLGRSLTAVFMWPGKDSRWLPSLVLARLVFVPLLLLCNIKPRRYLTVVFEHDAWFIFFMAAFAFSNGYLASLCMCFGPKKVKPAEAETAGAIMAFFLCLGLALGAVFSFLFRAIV
Experimental: as §2
This experiment is designed to show whether [^3H]L-troxacitabine (10 μM) is taken up by DU145 cells and if the rate of uptake is affected by the addition of high concentrations (1 mM) of non-radioactive troxacitabine.

For `Nc1ccn([C@@H]2CO[C@H](CO)O2)c(=O)n1` [Troxacitabine, troxacitabine], the “uptake mediated by hCNT1” value (hCNT1) was “not mediated”, the “uptake mediated by hCNT2” value (hCNT2) was “not mediated” and the “uptake of [3H]nucleoside over the 6-min time course” value (CEM/ARAC8C cells) was “taken up to a lesser degree”. The EC50 (CEM/dCK cells) was greater than 100 µM, the “effect of NBMPR on uptake” value (hENT1) was “not affected” and the “level of [3H] uptake” value (hENT1) was “low levels”. For the same compound, the “effect of non-radioactive troxacitabine (1 mM) on uptake” value (hENT1; 10 μM [3H]L-troxacitabine) was “no significant effect” and the rate of uptake (hENT1; 10 μM, short (0-30s) and prolonged exposures (0-4 h)) was “very slow”.
